{
  "source": "paper PMC9179882",
  "about": "(Cancers, 2022)",
  "key": {"SW480 xenograft": {"system": "SW480 xenograft", "assay": "SW480 xenograft study in NSG mice", "type": "in vivo, NOD scid gamma (NSG) mice", "procedure": "NOD scid gamma (NSG) mice were purchased from CIBM-UGR and housed at the animal facility according to institutional guidelines (Approved Ethical Committee #152-CEEA-OH-2016). For xenograft generation, 1 × 10^5 SW480 cells in 100 μL PBS were subcutaneously injected into the flank of 8-week-old female mice. Treatment started when tumors reached ~20 mm^3. Mice were randomly divided into two groups of seven mice each and treated with either vehicle DMSO or 200 mg/kg of GA intraperitoneally every other day for 38 days. Animals were monitored every two days after cell injection until final time point when they were sacrificed, and tumors were dissected for further analyses. Specifically, tumor volumes were determined every two days using digital calipers according to the formula: In progress tumor volume = (π × length × width^2)/6 [12].\nFixation, paraffin-embedding, and sectioning of tumor samples were performed by the histopathology core service at the Centre for Genomics and Oncological Research (Granada, Spain). In order to evaluate the percentage of proliferating cells, tumor sections were immunostained with Ki67 and counterstained with hematoxylin and eosin (H&E) at Atrys Health (Barcelona, Spain). The staining was visualized using NDP.view2 Viewing software (Hamamatsu), and Ki67 coverage was quantified on ten different images per tumor using Fiji software. In order to measure BG4 signal, tumor sections were dewaxed and rehydrated following standard methods. Epitope retrieval was performed at 100 °C for 20 min with citrate buffer (citrate-based buffer pH 6.0) according to previous studies. […] Slides were then counterstained for 5 min with DAPI to visualize the cell nuclei. Antifade Mowiol (81381, Merck, Darmstadt, Germany) was used as mounting media. Images were acquired on a Confocal Zeiss LSM 710 inverted microscope with a 63× immersion objective. BG4 mean nuclear fluorescence intensity was quantified using Fiji software (N > 2000). Antibodies used are listed in Supplementary Table S1.\nWe investigated the activity of GA in a mouse xenograft model of CRC to determine if the in vitro activity of GA was paralleled in vivo. According to previous reports with SW480 cells, we executed xenograft studies by subcutaneous injection in NOD scid gamma (NSG) mice. Intraperitoneal treatment started when tumors reached ~20 mm^3 (35 days post-injection), and a therapeutic schedule with either a vehicle or 200 mg/kg of GA, every other day for 38 days, was explored based on previous studies. Initially, each group included seven animals but two mice from the control group were excluded because the tumors had developed late. Therefore, five mice were considered in the control group and seven in the GA-treated one. […] In particular, when comparing the tumor volume between control and treated animals at each time point by Student’s two-tailed t-test, significant differences were observed from the 23rd day after initiation of the treatment. Histopathological analyses of tumors from animals sacrificed at the ending point were also conducted. […] Furthermore, immunohistochemical assessment of the antigen Ki67 was used to estimate cell proliferation."}, "SW480 cells": {"system": "SW480 cells", "assay": "Immunofluorescence of nucleolar proteins (NCL, FBL, POLR1A)", "type": "cell-based, human", "details": "SW480, GA IC50 for 6 h", "procedure": "Cells were seeded on 13 mm circular coverslips and placed in 24-well plates. After exposure to different experimental conditions, fixation was performed with 4% (v/v) paraformaldehyde (P6148, Merck, Darmstadt, Germany) for 10 min at room temperature (RT), permeabilization with 0.1% (v/v) Triton-X100 (T8787, Merck, Darmstadt, Germany) for 10 min and blocking with 10% bovine serum albumin (A7906, Merck, Darmstadt, Germany) containing 0.5% (v/v) Triton-X100 for 30 min at RT. Primary antibodies were incubated for 1 h at RT and secondary antibodies for 30 min at 4 °C in darkness. Finally, all coverslips were mounted onto slides (J2800AMNZ, Thermo scientific, Waltham, MA, USA), including DAPI (4′,6-diamidino-2-phenylindole) for nuclear counterstain. Images were acquired on a Confocal Zeiss LSM 710 inverted microscope with a 63× immersion objective. In a different manner, BG4 immunofluorescence was conducted as previously described. BG4 mean nuclear fluorescence intensity was quantified using Fiji software (N > 250). Antibodies used are listed in Supplementary Table S1.\nGA is widely present in the plant kingdom and largely found in different food sources. According to its cytotoxic activity (shown above), cell cycle analysis was performed on SW480 cells by FACS with propidium iodide staining (Figure 1C). After GA IC50 treatment for 24 h, the frequency of cells at different stages of the cell cycle changed with respect to non-treated cells (45.34% of cells at G1, 34.16% at S, 7.65% at G2/M). […] To explore this hypothesis, we determined the intracellular localization of nucleolar proteins by immunofluorescence of SW480 cells treated with GA IC50 for 6 h because we had previously observed that some DNA-binding compounds affect nucleolar organization. In particular, we analyzed three proteins that are indicative of nucleolus status, such as nucleolin (NCL), fibrillarin (FBL), and Pol I catalytic subunit A (POLR1A) (Figure 1D)."}, "CMYC G4": {"system": "CMYC G4", "assay": "TOPRO3 fluorescent intercalator displacement (FID) assay, CMYC G4", "type": "binding", "details": "GA 10 µM, relative to GA-free control, CMYC promoter G4", "procedure": "G4-oligonucleotides listed in Supplementary Table S3 were purchased from Integrated DNA Technologies (Clareville, IA, USA). All of them were dissolved in G4s buffer (10 mM potassium phosphate, 100 mM potassium chloride at pH 7.0), heated at 95 °C for 10 min, slowly cooled to RT, and stored at 4 °C.\nWe used TOPRO3 (T3605, Thermo Scientific, MA, USA) as a fluorescent intercalator for FID assays. In particular, […] TOPRO3 was incubated with […] prefolded G4s and exposed to 10 µM GA in 96-well plates. TOPRO3 was excited at 642 nm, and emission profile was monitored between 650–800 nm with Infinite M200 Plate Reader (Tecan). Fluorescence values were calculated as follows: %Fluorescence = A/B × 100; where (A) is the fluorescence value in presence of GA, and (B) corresponds to the fluorescence value in GA-free controls. All assays were conducted in triplicate. The G4-oligonucleotides used in the current study are listed in Supplementary Table S3."}, "[1]": {"system": "5′ETS (DNA, G4) GGGGGGCGGGTGGTTGGG", "assay": "fluorescent intercalator displacement (TOPRO3)", "details": "oligonucleotide prefolded in 100 mM KCl, 10 mM potassium phosphate; TOPRO3 displaced; 10 µM GA, single concentration; prefolding buffer pH 7.0"}, "[2]": {"details": "tumors at end point, 200 mg/kg GA"}},
  "data": [
    {"smiles": "O=C(O)c1cc(O)c(O)c(O)c1", "note": "[Gallic acid, 3,4,5-trihydroxybenzoic acid]", "values": [
      {"measurement": "body weight reduction or adverse effects", "setting": "SW480 xenograft; 200 mg/kg GA i.p. every other day for 38 days", "result": "No body weight reduction or adverse effects such as tumor ulceration was observed"},
      {"measurement": "progression of tumor xenografts (tumor volume)", "setting": "SW480 xenograft; 200 mg/kg GA i.p. every other day for 38 days vs vehicle", "result": "robust blockade on the progression of tumor xenografts"},
      {"measurement": "damage to major organs", "setting": "SW480 xenograft; CRC xenografts treated with GA", "result": "without causing observable damage to major organs"},
      {"measurement": "5′ETS expression in tumors (qRT-PCR)", "setting": "SW480 xenograft; responder mice, 200 mg/kg GA", "result": "significantly downregulated"},
      {"measurement": "CMYC expression in tumors (qRT-PCR)", "setting": "SW480 xenograft; responder mice, 200 mg/kg GA", "result": "significantly downregulated"},
      {"measurement": "Ki67 coverage in tumor sections", "setting": "SW480 xenograft; [2]", "result": "coverage of Ki67 was significantly decreased"},
      {"measurement": "nuclear BG4 signal in tumor sections", "setting": "SW480 xenograft; [2]", "result": "significant increase in nuclear BG4 signal"},
      {"measurement": "nucleolar localization of POLR1A", "setting": "SW480 cells", "result": "significant changes in POLR1A were not observed"},
      {"measurement": "nucleolar localization of fibrillarin (FBL)", "setting": "SW480 cells", "result": "segregation of FBL to nucleolar periphery caps"},
      {"measurement": "nucleolar localization of nucleolin (NCL)", "setting": "SW480 cells", "result": "translocation of NCL from the nucleolus to the nucleoplasm"},
      {"measurement": "TOPRO3 fluorescence percentage", "setting": "CMYC G4", "result": 84.3, "unit": "%"},
      {"measurement": "%Fluorescence", "setting": "[1]", "result": 84.2, "unit": "%"}
    ]}
  ]
}
